Source: patent US8133991B2, “Allergen inactivating agent” (Kao Corporation, priority 2002, dated 2012)

Assays:
Ceder = test: Quidel Allergen Screen: reactivity of immobilized allergen with allergy patient IgE; format: biochemical, Cryptomeria japonica; conditions: 1% sample, 100 μL/stick, room temperature 2 hours; distilled water control = 0
Text: (§1) Quidel Allergen Screen (manufactured by Xenith Biomed) which is a reagent for detecting antigen-specific IgE antibody by using enzyme-labeled anti-IgE antibody was used to measure the reactivity between the allergen (house dust, Dermatophagoides farinae, Dermatophagoides pteronyssinus, cat epidermis, Cryptomeria japonica, ragweed, and the like) immobilized on a dip stick and the IgE antibody from the allergy patient by the procedure as described below.
The allergen stick was placed in a wetting box with the pad side facing upward, and the stick was impregnated with the product of the present invention adjusted to 1% at an amount of 100 μL/stick and left at room temperature for 2 hours. […]
About 1 mL of enzyme-labeled anti-IgE antibody was placed in a test tube, and allergen stick is placed in the test tube with the pad facing downward after washing the allergen stick and shaking off the excess water, and the reaction was allowed to take place at room temperature for 30 minutes. […] Next, intensity of the blue color developed was measured with an image analyzer, and decrease in the reactivity by the product of the present invention was calculated by the following equation by using the color intensity attained when the IgE from allergy patient was used with distilled water treatment for the control. […]

[1] = test system: Dermatophagoides pteronyssinus; test: as above; format: biochemical; conditions: 1% sample, 100 μL/stick, room temperature 2 hours; distilled water control = 0
Text: as §1
(§2) The allergen stick was placed in a wetting box with the pad side facing upward, and the stick was impregnated with the product of the present invention adjusted to 1% at an amount of 100 μL/stick and left at room temperature for 2 hours. Each pad was washed evenly for 30 seconds with physiological saline in a washing bottle, and 50 μL/stick of the serum collected from an allergy patient was added dropwise to the pad and the serum was evenly spread. The wetting box was covered with lid and allowed to stand for 18 hours at room temperature. After the completion of the reaction, the pad was washed evenly for 20 seconds by the physiological saline in a washing bottle.
(§3) About 1 mL of enzyme-labeled anti-IgE antibody was placed in a test tube, and allergen stick is placed in the test tube with the pad facing downward after washing the allergen stick and shaking off the excess water, and the reaction was allowed to take place at room temperature for 30 minutes. After the termination of the reaction, each pad was evenly washed with tap water for 2 minutes. At this occasion, disappearance of the red color on the pad was confirmed. About 1 mL of the substrate solution was poured into test tube, and allergen stick was placed in the test tube with the pad facing downward after washing the allergen stick and shaking off the excess water, and the reaction was allowed to take place at room temperature for 30 minutes. After the completion of the reaction, reaction was terminated by absorbing the water impregnated in the pad with a paper towel by gently patting the pad with the paper towel from the rear side of the pad. Next, intensity of the blue color developed was measured with an image analyzer, and decrease in the reactivity by the product of the present invention was calculated by the following equation by using the color intensity attained when the IgE from allergy patient was used with distilled water treatment for the control.
(§4) Allergen inactivation effect (%)=100−{(IgE reaction intensity when treated by the product of the present invention)−(reaction intensity of the negative control)}/{(IgE reaction intensity of the control treated by distilled water)−(reaction intensity of the negative control)×100

Dermatophagoides farinae = test: as above; format: biochemical; conditions: 1% sample, 100 μL/stick, room temperature 2 hours; distilled water control = 0
Text: as §1, §2, §3, §4

House dust 1 = test: as above; format: biochemical; conditions: 1% sample, 100 μL/stick, room temperature 2 hours; distilled water control = 0
Text: as §1, §2, §3, §4

Cat epithelium = test: as above; format: biochemical; conditions: 1% sample, 100 μL/stick, room temperature 2 hours; distilled water control = 0
Text: as §1, §2, §3, §4

[2] = molecular target: T1, Dermatophagoides allergen Derf2 (Dermatophagoides farinae, UniProt Q00855); test: Derf2 sandwich ELISA of mite extract after treatment with sample; format: biochemical; conditions: 1% sample solution mixed 1:1 with 0.5 mg/mL mite extract, room temperature 2 hours; distilled water control = 1; lower = more inactivation
T1 construct: purchased Torii Pharmaceutical Co., Ltd; host or cells: mite extract (natural allergen extract)
T1 sequence (Q00855 18-146): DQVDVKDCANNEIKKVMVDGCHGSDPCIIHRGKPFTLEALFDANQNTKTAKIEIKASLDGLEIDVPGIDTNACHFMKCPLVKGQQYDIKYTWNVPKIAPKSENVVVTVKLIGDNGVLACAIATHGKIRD
Experimental: (1) The polysaccharide derivative of the present invention was dissolved in distilled water to prepare 1% solution. Quantity of Dermatophagoides allergen was measured as a typical allergen in the indoor environment by sandwich ELISA using a mouse monoclonal antibody. More specifically, quantity of Dermatophagoides allergen Derf2 was measured by using Derf2 antibody and a labeled antibody manufactured by Asahi Brewery, Ltd.
The allergen inactivation effect is indicated in terms of the ratio in relation to the control wherein the sample was treated in the same way except for the use of distilled water, namely, by assuming the Derf2 quantity in the control as 1.
(2) Scratch extract “mite” (manufactured by Torii Pharmaceutical Co., Ltd.) was placed in a dialysis tube, and dialyzed overnight in 10% PBS (4° C.) to remove glycerol in the extract. […] Quantity of Derf2 in the reaction solution was determined by using anti-Derf2 monoclonal antibody (15E11) and HRP-labeled anti-Derf2 monoclonal antibody (13A4) manufactured by Asahi Brewery, Ltd. in accordance with the protocol attached with the product, and using Derf2 for the Derf2 antigen for depicting the calibration curve.
Quantity of the Derf2 treated with various samples was calculated in relation to the quantity of Derf2 treated with the distilled water, which was assumed to be 1.

O=C(OC[C@H]1O[C@@H](OC(=O)c2cc(O)c(O)c(OC(=O)c3cc(O)c(O)c(O)c3)c2)[C@H](OC(=O)c2cc(O)c(O)c(OC(=O)c3cc(O)c(O)c(O)c3)c2)[C@@H](OC(=O)c2cc(O)c(O)c(OC(=O)c3cc(O)c(O)c(O)c3)c2)[C@@H]1OC(=O)c1cc(O)c(O)c(OC(=O)c2cc(O)c(O)c(O)c2)c1)c1cc(O)c(O)c(OC(=O)c2cc(O)c(O)c(O)c2)c1 [Tannic acid]
Allergen inactivating effect (%) <Plant allergen> Ceder (Ceder): 78%
Allergen inactivating effect (%) <Animal allergen> Dermatophagoides pteronyssinus [1]: 70%
Allergen inactivating effect (%) <Animal allergen> Dermatophagoides farinae (Dermatophagoides farinae): 62%
Allergen inactivating effect (%) <Animal allergen> House dust 1 (House dust 1): 83%
Allergen inactivating effect (%) <Animal allergen> Cat epithelium (Cat epithelium): 92%
Quantity of Derf2 (Ratio to the control) [2]: 0.2
